Target: T1, α1β3 GABAA receptor, 3α1:2β3 stoichiometry (α1 + β3, 30:1) (Homo sapiens, UniProt P14867+P28472)
T1 construct: gene GABRA1; full-length free subunits, cRNA ratio α1:β3 30:1, Xenopus laevis oocytes; heteropentamer; 'Human' printed for α1 and γ2, β3 implied by same sentence
T1 sequence (P14867 28-456): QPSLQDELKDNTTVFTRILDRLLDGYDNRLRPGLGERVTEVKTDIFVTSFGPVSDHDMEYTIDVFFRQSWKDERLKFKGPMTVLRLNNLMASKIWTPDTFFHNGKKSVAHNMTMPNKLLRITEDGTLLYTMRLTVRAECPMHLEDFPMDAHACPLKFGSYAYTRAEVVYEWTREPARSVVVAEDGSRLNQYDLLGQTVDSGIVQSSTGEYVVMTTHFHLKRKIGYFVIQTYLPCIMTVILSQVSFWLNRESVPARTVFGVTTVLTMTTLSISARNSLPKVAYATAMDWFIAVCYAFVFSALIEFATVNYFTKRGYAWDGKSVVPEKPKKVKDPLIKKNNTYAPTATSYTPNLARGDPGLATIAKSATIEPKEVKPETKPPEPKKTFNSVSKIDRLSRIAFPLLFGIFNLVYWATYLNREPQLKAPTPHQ
T1 sequence (P28472 26-473): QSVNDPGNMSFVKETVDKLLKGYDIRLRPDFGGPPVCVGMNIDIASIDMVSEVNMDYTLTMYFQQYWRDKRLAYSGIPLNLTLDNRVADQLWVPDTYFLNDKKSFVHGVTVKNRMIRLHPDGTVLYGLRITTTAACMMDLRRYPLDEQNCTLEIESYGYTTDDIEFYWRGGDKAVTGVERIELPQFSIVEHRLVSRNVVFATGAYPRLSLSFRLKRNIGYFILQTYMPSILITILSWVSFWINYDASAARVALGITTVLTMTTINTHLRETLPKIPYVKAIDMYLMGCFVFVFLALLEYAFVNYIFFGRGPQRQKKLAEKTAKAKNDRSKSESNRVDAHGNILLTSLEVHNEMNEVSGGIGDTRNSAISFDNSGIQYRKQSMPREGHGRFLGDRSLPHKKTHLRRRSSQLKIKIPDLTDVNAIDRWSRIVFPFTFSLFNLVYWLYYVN
Assay: two-electrode voltage clamp, Xenopus oocytes
Format: cell-based
Details: read-out: % inhibition at 1 μM

`CCOC(=O)c1ncn2c1CN(C)C(=O)c1cc(F)ccc1-2` [flumazenil, Ethyl 8-fluoro-5-methyl-6-oxo-5,6-dihydro-4H-benzo[f]imidazo[1,5-a][1,4]diazepine-3-carboxylate] was tested, and the inhibition at 1 µM was 95%.

— publication PMC4921915 (Scientific Reports, 2016)
